Reference: patent US20050228046A1, “Alkylamine as an antimicrobial agent in ophthalmic compositions” (ADVANCED MEDICAL OPTICS, INC., priority 2004, published 2005)

Legend:
[1] = system: Candida albicans, ATCC 10231; assay: Microbiology challenge test, log drop; format: cell-based; conditions: for Log drop at 6 hour: Table 6: Myristylamine 0.001 % w/w
Protocol: (§1) The following is the procedure by which various antimicrobial agents and solutions are tested for their ability to reduce microbial loads over short periods of time, typically 24 hours and less. The procedure is a basic microbiology challenge test, which involves the inoculation of test product aliquots with a known number of viable cells of several test organisms, and assay for the survivors at various time intervals. The results are used to calculate log drops at soak times and construct kill-curves (graphs of survivors versus time) if desired.
(§2) Candida albicans, ATCC 10231, is one of five organisms specified per FDA and ISO/CLI tests for the testing of contact lens disinfectants (FDA Premarket Notification (510k) Guidance Document for Contact Lens Care Products, Appendix B, Apr. 1, 1997 and ISO/FDIS 14729: Ophthalmic optics-Contact lens care products-Microbiological requirements and test methods for products and regimens for hygienic management of contact lenses, January 2001). Contact lens disinfectants are also known as contact lens multi-purpose solutions when they are used for rinsing, cleaning, disinfection, storage and rewetting contact lenses. The five FDA/ISO specified test organisms are listed below: • Serratia marcescens, ATCC 13880 • Staphylococcus aureus, ATCC 6538 • Pseudomonas aeruginosa, ATCC 9027 • Candida albicans, ATCC 10231 • Fusarium solani, ATCC 36031
(§3) The specific test procedure for testing antimicrobial activity against the five FDA/ISO specified test organisms is as follows (C. albicans is provided as a specific example): Test samples are sterile-filtered through a 0.22 micron sterile filter into sterile plastic high density polyethylene bottles or plastic flasks. A 10-mL aliquot of test sample is aseptically transferred into a sterile polystyrene plastic test tube. Sterile saline (0.90 w/v % NaCl) with 0.05 w/v % Polysorbate 80 (SS+TWEEN) is transferred into a separate control tube. All samples and control are stored at 20-25° C. throughout the duration of the test.
(§4) Test cultures of Candida albicans, ATCC 10231 are prepared in the conventional manner. Candida albicans cultures are grown on agar slants from primary frozen, lyophilized or “Culti-loop®” cultures. Three mL of sterile 0.9% saline is used to gently dislodge culture growth from the agar surface. The resulting harvest is transferred to an appropriate screw cap test tube containing glass beads and vortexed for approximately one minute. The vortexed harvest is diluted as needed with sterile 0.9% saline to prepare the culture inoculum with a concentration of 1×10e8 CFU/mL. Fifty microliters of culture inoculum is added to 10.0 mL of each test sample and control, so that the final inoculum level is in the range of 1×10e5 to 1×10e6 CFU(colony forming units) per mL of Candida albicans, ATCC 10231. Each sample and control tube is vortexed briefly to disperse the inoculum. Contact time intervals for testing activity against Candida are typically 4 or 6 hours, to conform to the intended product label instructions for contact lens soak time.
(§5) Aerobic Plate Count Methods are performed in order to quantitate test samples for their levels of survivors. At appropriate assay times, 0.5 mL well-vortexed aliquots are removed from sample tubes and added to glass test tubes containing 4.5 mL Letheen Neutralizing Broth media (Berton, Dickinson and Company, Sparks, Md.). After a previously determined, validated neutralizing time period, these samples are diluted 10-fold through serial dilutions using glass test tubes containing 4.5 mL Letheen Neutralizing Broth media. Aliquots of 0.1 mL are removed from each dilution tube and spread-plate applied to agar plates containing Sabouraud Dextrose Agar (SAB)(Berton, Dickinson and Company, Sparks, Md.). 10^1 to 10^4 CFU/mL survivor levels are quantitated. […]

[2] = system: Fusarium solani, ATCC 36031; assay: Microbiology challenge test, log drop; format: cell-based; conditions: for Log drop at 6 hour: Table 6: Myristylamine 0.001 % w/w
Protocol: as §1, §2, §3, §4, §5

[3] = system: Serratia marcescens, ATCC 13880; assay: Microbiology challenge test, log drop; format: cell-based; conditions: for Log drop at 6 hour: Table 6: Myristylamine 0.001 % w/w
Protocol: as §1, §2, §3, §4, §5

[4] = system: Pseudomonas aeruginosa, ATCC 9027; assay: Microbiology challenge test, log drop; format: cell-based; conditions: for Log drop at 6 hour: Table 6: Myristylamine 0.001 % w/w
Protocol: as §1, §2, §3, §4, §5

[5] = system: Staphylococcus aureus, ATCC 6538; assay: Microbiology challenge test, log drop; format: cell-based; conditions: for Log drop at 6 hour: Table 6: Myristylamine 0.001 % w/w
Protocol: as §1, §2, §3, §4, §5

[6] = Solubility in aqueous media; format: physicochemical
[7] = Contact lens uptake: content left in solution after shaking with lenses; format: physicochemical; conditions: Myristylamine with TPGS 20 fold
Protocol: The results in Table 9A show the remaining quaternary ammonium and tertiary amine content left in solution after a 15 ml-solution-2 lenses closed system has been shaken for 6 days at room temperature. […] The control which was run for this experiment, which includes the remaining ingredients in the solutions referenced in Table 9A are listed in Table 9B. As one of ordinary skill in the art would realize, the less quaternary ammonium or tertiary amine content remaining in solution after the shaking period, the higher the absorption by the lenses.

[8] = Table 2A: Myristylamine 0.0003 % w/w, Tetronic 1307 0.05, pH 7.8
[9] = Table 2A: Myristylamine 0.0005 % w/w, Tetronic 1307 0.05, pH 7.8
[10] = Table 3: Myristylamine 0.0005 w/v % with WSCP 0.001, NaClO2 0.01, NaCitrate 0.4, T1307 0.05
[11] = Table 3: Myristylamine 0.0005 w/v %, WSCP 0.0, NaClO2 0.0, NaCitrate 0.0, T1307 0.05
[12] = Table 4: Myristylamine 0.0003 w/v % with PHMB 0.00003, Tetronic 1107 0.05, pH 7.8
[13] = Table 4: Myristylamine 0.0003 w/v %, PHMB 0, Tetronic 1107 0.05, pH 7.8
[14] = Table 5: Myristylamine 0.0005 w/v % with Polyquaternium-1 0.001, NaCitrate 0.6, Tetronic 1304 0.05, pH 7.8
[15] = Tween 80 0.0074, Polyquaternium-1 0, pH 7.3, 6 hour
[16] = Tween 80 0.0074, with Polyquaternium-1 0.000075, pH 7.3, 6 hour

CCCCCCCCCCCCCCN [Myristylamine]
Log Drop [1, 8]: 3.67
Log Drop [1, 9]: 4.41
Log Drop [1, 10]: 2.95
Log Drop [1, 11]: 3.29
Log Drop [1, 12]: 3.31
Log Drop [1, 13]: 3.67
Log Drop [1, 14]: 4.52
Log drop at 6 hour [1, 15]: >4.67
Log drop at 6 hour [1, 16]: >4.67
antimicrobial activity against C. albicans ([1]; result in words, Table 2A data): strong antimicrobial activity against C. albicans
Log Drop [2, 8]: >4.34
Log Drop [2, 9]: >4.34
Log Drop [2, 10]: >4.34
Log Drop [2, 11]: >4.34
Log Drop [2, 12]: >4.34
Log Drop [2, 13]: >4.34
Log Drop [2, 14]: >4.34
Log drop at 6 hour [2, 15]: 3.73
Log drop at 6 hour [2, 16]: 3.12
Log Drop [3, 8]: 1.18
Log Drop [3, 9]: 2.6
Log Drop [3, 10]: 3.1
Log Drop [3, 11]: 1.68
Log Drop [3, 12]: 3.46
Log Drop [3, 13]: 1.18
Log Drop [3, 14]: 3.64
Log drop at 6 hour [3, 15]: 1.19
Log drop at 6 hour [3, 16]: 3.12
Log Drop [4, 8]: >4.63
Log Drop [4, 9]: >4.63
Log Drop [4, 10]: >4.63
Log Drop [4, 11]: >4.63
Log Drop [4, 12]: >4.63
Log Drop [4, 13]: >4.63
Log Drop [4, 14]: >4.63
Log drop at 6 hour [4, 15]: >4.58
Log drop at 6 hour [4, 16]: >4.58
Log Drop [5, 8]: 2.87
Log Drop [5, 9]: 4.8
Log Drop [5, 10]: 3.74
Log Drop [5, 11]: 2.93
Log Drop [5, 12]: 4.21
Log Drop [5, 13]: 2.87
Log Drop [5, 14]: 4.69
Log drop at 6 hour [5, 15]: 1.04
Log drop at 6 hour [5, 16]: 3.21
solubility in aqueous solution with acid and surfactant ([6]; acid and surfactant containing an alkyl chain coexist, solution pH below 6): may be dissolved in an aqueous solution
solubility in acid ([6]; ambient temperature, solution pH below 2): insoluble in acid at ambient temperature
solubility in water ([6]; water or basic solution): does not dissolve in water or in a basic solution
remaining content left in solution, Acuvue ([7]; 15 ml solution, 2 Acuvue lenses, closed system shaken 6 days at room temperature): 34.1 ppm
remaining content left in solution, Purevision ([7]; 15 ml solution, 2 Purevision lenses, closed system shaken 6 days at room temperature): 13.0 ppm
remaining content left in solution, Without Lens ([7]; 15 ml system without lenses, shaken 6 days at room temperature): 37.9 ppm
